{
  "source": "patent US9296741B2",
  "about": "“Bromodomain inhibitors” (priority 2012, dated 2016)",
  "key": {"[1]": {"biological_target": "human BRD4 first bromodomain (BDI_K57-E168) (Homo sapiens (Human), UniProt O60885)", "experiment": "TR-FRET bromodomain binding assay, BRD4 first bromodomain"}, "[2]": {"biological_target": "human BRD4 second bromodomain (BDII_E352-M457) (Homo sapiens (Human), UniProt O60885)", "experiment": "TR-FRET bromodomain binding assay, BRD4 second bromodomain"}, "[3]": {"experiment": "Rat liver microsome stability assay", "format": "in vitro ADME", "conditions": "rat liver microsomes (male Sprague-Dawley), 0.5 μM test compound, pH 7.4, 37° C.; for half-life at 0.5 μM: 0.25 mg/mL microsomal protein, read-out: Stability in rat liver microsomes (t1/2 in minutes)"}, "[4]": {"experiment": "Human liver microsome stability assay", "format": "in vitro ADME", "conditions": "both sexes, human, microsomes, pH 7.4"}, "[5]": {"system": "breast cancer cell line MX-1", "experiment": "MX-1 cell line proliferation assay", "format": "cell-based, human", "conditions": "Homo sapiens, MX1, 72 h; MX-1 cells, 3-day proliferation, Cell Titer Glo; read-out: Cellular proliferation: EC50"}},
  "data": [
    {"smiles": "Cn1cc(-c2cc(S(C)(=O)=O)ccc2Oc2ccccc2C#N)c2cc[nH]c2c1=O", "note": "[Example 183, 2-[2-(6-methyl-7-oxo-6,7-dihydro-1H-pyrrolo[2,3-c]pyridin-4-yl)-4-(methylsulfonyl)phenoxy]benzonitrile]", "values": [
      {"measurement": "Ki", "setting": "[1]", "result": 41.2, "unit": "nM"},
      {"measurement": "Ki", "setting": "[2]", "result": 19.8, "unit": "nM"}
    ]},
    {"smiles": "Cc1c(NS(C)(=O)=O)ccc(OCC2CC2)c1-c1cn(C)c(=O)c2[nH]ccc12", "note": "[Example 262, N-[4-(cyclopropylmethoxy)-2-methyl-3-(6-methyl-7-oxo-6,7-dihydro-1H-pyrrolo[2,3-c]pyridin-4-yl)phenyl]methanesulfonamide]", "values": [
      {"measurement": "Ki", "setting": "[1]", "result": 125, "unit": "nM"},
      {"measurement": "half-life at 0.5 μM", "setting": "[3]", "result": 25, "unit": "min"},
      {"measurement": "half-life at 0.5 μM", "setting": "[4]", "result": "> 120", "unit": "min"},
      {"measurement": "Ki", "setting": "[2]", "result": 489, "unit": "nM"}
    ]},
    {"smiles": "Cn1cc(-c2cc(C(=O)NC3CCN(C(=O)OC(C)(C)C)CC3)ccc2Oc2ccc(F)cc2F)c2cc[nH]c2c1=O", "note": "[Example 136, tert-butyl 4-{[4-(2,4-difluorophenoxy)-3-(6-methyl-7-oxo-6,7-dihydro-1H-pyrrolo[2,3-c]pyridin-4-yl)benzoyl]amino}piperidine-1-carboxylate]", "values": [
      {"measurement": "Ki", "setting": "[1]", "result": 234, "unit": "nM"},
      {"measurement": "Ki", "setting": "[2]", "result": 295, "unit": "nM"}
    ]},
    {"smiles": "Cn1cc(-c2cc(C(F)(F)F)ccc2Oc2ccc(F)cc2F)c2cc[nH]c2c1=O", "note": "[Example 275, 4-[2-(2,4-difluorophenoxy)-5-(trifluoromethyl)phenyl]-6-methyl-1,6-dihydro-7H-pyrrolo[2,3-c]pyridin-7-one]", "values": [
      {"measurement": "Ki", "setting": "[1]", "result": 526, "unit": "nM"},
      {"measurement": "Ki", "setting": "[2]", "result": 1130, "unit": "nM"}
    ]},
    {"smiles": "COc1cc(CNC(=O)c2ccc(Oc3ccc(F)cc3F)c(-c3cn(C)c(=O)c4[nH]ccc34)c2)cc(OC)c1OC", "note": "[Example 130, 4-(2,4-difluorophenoxy)-3-(6-methyl-7-oxo-6,7-dihydro-1H-pyrrolo[2,3-c]pyridin-4-yl)-N-(3,4,5-trimethoxybenzyl)benzamide]", "values": [
      {"measurement": "Ki", "setting": "[1]", "result": 183, "unit": "nM"},
      {"measurement": "Ki", "setting": "[2]", "result": 174, "unit": "nM"}
    ]},
    {"smiles": "Cn1cc(-c2cc(S(C)(=O)=O)ccc2Oc2cc(C(F)(F)F)ccc2Cl)c2cc[nH]c2c1=O", "note": "[Example 163, 4-{2-[2-chloro-5-(trifluoromethyl)phenoxy]-5-(methylsulfonyl)phenyl}-6-methyl-1,6-dihydro-7H-pyrrolo[2,3-c]pyridin-7-one]", "values": [
      {"measurement": "EC50", "setting": "[5]", "result": 295, "unit": "nM"}
    ]},
    {"smiles": "Cn1cc(-c2cc(S(C)(=O)=O)ccc2Oc2cccc3ccccc23)c2cc[nH]c2c1=O", "note": "[Example 185, 6-methyl-4-[5-(methylsulfonyl)-2-(naphthalen-1-yloxy)phenyl]-1,6-dihydro-7H-pyrrolo[2,3-c]pyridin-7-one]", "values": [
      {"measurement": "Ki", "setting": "[1]", "result": 34.5, "unit": "nM"},
      {"measurement": "Ki", "setting": "[2]", "result": 12.2, "unit": "nM"}
    ]},
    {"smiles": "Cn1cc(-c2cc(S(C)(=O)=O)ccc2Oc2ccc3c(c2)CCC3=O)c2cc[nH]c2c1=O", "note": "[Example 181, 6-methyl-4-{5-(methylsulfonyl)-2-[(1-oxo-2,3-dihydro-1H-inden-5-yl)oxy]phenyl}-1,6-dihydro-7H-pyrrolo[2,3-c]pyridin-7-one]", "values": [
      {"measurement": "Ki", "setting": "[1]", "result": 30.5, "unit": "nM"},
      {"measurement": "Ki", "setting": "[2]", "result": 22.4, "unit": "nM"}
    ]},
    {"smiles": "COc1ccc2[nH]cc(CCNC(=O)c3ccc(Oc4ccc(F)cc4F)c(-c4cn(C)c(=O)c5[nH]ccc45)c3)c2c1", "note": "[Example 124, 4-(2,4-difluorophenoxy)-N-[2-(5-methoxy-1H-indol-3-yl)ethyl]-3-(6-methyl-7-oxo-6,7-dihydro-1H-pyrrolo[2,3-c]pyridin-4-yl)benzamide]", "values": [
      {"measurement": "Ki", "setting": "[1]", "result": 320, "unit": "nM"},
      {"measurement": "half-life at 0.5 μM", "setting": "[3]", "result": 4, "unit": "min"},
      {"measurement": "half-life at 0.5 μM", "setting": "[4]", "result": 2, "unit": "min"},
      {"measurement": "Ki", "setting": "[2]", "result": 169, "unit": "nM"}
    ]},
    {"smiles": "Cn1cc(-c2cc(Cn3cccn3)ccc2Oc2ccccc2)c2cc[nH]c2c1=O", "note": "[Example 30, 6-methyl-4-[2-phenoxy-5-(1H-pyrazol-1-ylmethyl)phenyl]-1,6-dihydro-7H-pyrrolo[2,3-c]pyridin-7-one]", "values": [
      {"measurement": "EC50", "setting": "[5]", "result": 562, "unit": "nM"}
    ]},
    {"smiles": "CN1CCN(CCNC(=O)c2cc3c(-c4cc(NS(C)(=O)=O)ccc4Oc4ccccc4)nn(C)c(=O)c3[nH]2)CC1", "note": "[Example 79, 6-methyl-N-[2-(4-methylpiperazin-1-yl)ethyl]-4-{5-[(methylsulfonyl)amino]-2-phenoxyphenyl}-7-oxo-6,7-dihydro-1H-pyrrolo[2,3-d]pyridazine-2-carboxamide]", "values": [
      {"measurement": "EC50", "setting": "[5]", "result": 887, "unit": "nM"}
    ]},
    {"smiles": "Cc1cccc(OCC2CC2)c1-c1cn(C)c(=O)c2[nH]ccc12", "note": "[Example 247, 4-[2-(cyclopropylmethoxy)-6-methylphenyl]-6-methyl-1,6-dihydro-7H-pyrrolo[2,3-c]pyridin-7-one]", "values": [
      {"measurement": "Ki", "setting": "[1]", "result": 1100, "unit": "nM"},
      {"measurement": "Ki", "setting": "[2]", "result": 3000, "unit": "nM"}
    ]},
    {"smiles": "Cn1cc(-c2cc(S(C)(=O)=O)ccc2Oc2cccc3c2CCC3=O)c2cc[nH]c2c1=O", "note": "[Example 175, 6-methyl-4-{5-(methylsulfonyl)-2-[(1-oxo-2,3-dihydro-1H-inden-4-yl)oxy]phenyl}-1,6-dihydro-7H-pyrrolo[2,3-c]pyridin-7-one]", "values": [
      {"measurement": "Ki", "setting": "[1]", "result": 25.8, "unit": "nM"},
      {"measurement": "Ki", "setting": "[2]", "result": 17.8, "unit": "nM"}
    ]},
    {"smiles": "Cn1cc(-c2ccccc2Cc2ccccc2)c2cc[nH]c2c1=O", "note": "[Example 195, 4-(2-benzylphenyl)-6-methyl-1,6-dihydro-7H-pyrrolo[2,3-c]pyridin-7-one]", "values": [
      {"measurement": "Ki", "setting": "[1]", "result": 5500, "unit": "nM"},
      {"measurement": "Stability in rat liver microsomes (t1/2 in minutes)", "setting": "[3]; […] microsomal protein", "result": 1, "unit": "min"},
      {"measurement": "half-life at 0.5 μM", "setting": "[4]", "result": 13, "unit": "min"},
      {"measurement": "Ki", "setting": "[2]", "result": 1020, "unit": "nM"}
    ]},
    {"smiles": "Cn1cc(-c2cc(C(=O)Nc3ncccn3)ccc2Oc2ccc(F)cc2F)c2cc[nH]c2c1=O", "note": "[Example 116, 4-(2,4-difluorophenoxy)-3-(6-methyl-7-oxo-6,7-dihydro-1H-pyrrolo[2,3-c]pyridin-4-yl)-N-(pyrimidin-2-yl)benzamide]", "values": [
      {"measurement": "Ki", "setting": "[1]", "result": 105, "unit": "nM"},
      {"measurement": "Ki", "setting": "[2]", "result": 89.1, "unit": "nM"}
    ]},
    {"smiles": "Cn1cc(-c2cc(S(C)(=O)=O)ccc2Oc2ccc3c(c2)C(=O)CC3)c2cc[nH]c2c1=O", "note": "[Example 182, 6-methyl-4-{5-(methylsulfonyl)-2-[(3-oxo-2,3-dihydro-1H-inden-5-yl)oxy]phenyl}-1,6-dihydro-7H-pyrrolo[2,3-c]pyridin-7-one]", "values": [
      {"measurement": "Ki", "setting": "[1]", "result": 19, "unit": "nM"},
      {"measurement": "Ki", "setting": "[2]", "result": 9.7, "unit": "nM"}
    ]},
    {"smiles": "Cn1cc(-c2cc(NC(=O)CC(F)(F)F)ccc2Oc2ccc(F)cc2F)c2cc[nH]c2c1=O", "note": "[Example 38, N-[4-(2,4-difluorophenoxy)-3-(6-methyl-7-oxo-6,7-dihydro-1H-pyrrolo[2,3-c]pyridin-4-yl)phenyl]-3,3,3-trifluoropropanamide]", "values": [
      {"measurement": "Ki", "setting": "[1]", "result": 148, "unit": "nM"},
      {"measurement": "half-life at 0.5 μM", "setting": "[3]", "result": 25, "unit": "min"},
      {"measurement": "half-life at 0.5 μM", "setting": "[4]", "result": 16.8, "unit": "min"},
      {"measurement": "Ki", "setting": "[2]", "result": 257, "unit": "nM"}
    ]},
    {"smiles": "Cn1cc(-c2cc(S(C)(=O)=O)ccc2Oc2ccc(Cl)c(F)c2)c2cc[nH]c2c1=O", "note": "[Example 189, 4-[2-(4-chloro-3-fluorophenoxy)-5-(methylsulfonyl)phenyl]-6-methyl-1,6-dihydro-7H-pyrrolo[2,3-c]pyridin-7-one]", "values": [
      {"measurement": "Ki", "setting": "[1]", "result": 30.4, "unit": "nM"},
      {"measurement": "half-life at 0.5 μM", "setting": "[3]", "result": 55, "unit": "min"},
      {"measurement": "half-life at 0.5 μM", "setting": "[4]", "result": 34, "unit": "min"},
      {"measurement": "Ki", "setting": "[2]", "result": 23, "unit": "nM"}
    ]},
    {"smiles": "Cn1cc(-c2cc(NC(=O)C(C)(C)C)ccc2Oc2ccc(F)cc2F)c2cc[nH]c2c1=O", "note": "[Example 39, N-[4-(2,4-difluorophenoxy)-3-(6-methyl-7-oxo-6,7-dihydro-1H-pyrrolo[2,3-c]pyridin-4-yl)phenyl]-2,2-dimethylpropanamide]", "values": [
      {"measurement": "Ki", "setting": "[1]", "result": 112, "unit": "nM"},
      {"measurement": "half-life at 0.5 μM", "setting": "[3]", "result": 8, "unit": "min"},
      {"measurement": "half-life at 0.5 μM", "setting": "[4]", "result": 9.7, "unit": "min"},
      {"measurement": "Ki", "setting": "[2]", "result": 124, "unit": "nM"}
    ]},
    {"smiles": "Cn1cc(-c2cc(C(=O)NCCc3ccc4c(c3)OCO4)ccc2Oc2ccc(F)cc2F)c2cc[nH]c2c1=O", "note": "[Example 132, N-[2-(1,3-benzodioxol-5-yl)ethyl]-4-(2,4-difluorophenoxy)-3-(6-methyl-7-oxo-6,7-dihydro-1 H-pyrrolo[2,3-c]pyridin-4-yl)benzamide]", "values": [
      {"measurement": "Ki", "setting": "[1]", "result": 238, "unit": "nM"},
      {"measurement": "Ki", "setting": "[2]", "result": 344, "unit": "nM"}
    ]},
    {"smiles": "COc1ccc(NC(=O)c2ccc(Oc3ccc(F)cc3F)c(-c3cn(C)c(=O)c4[nH]ccc34)c2)c(OC)n1", "note": "[Example 117, 4-(2,4-difluorophenoxy)-N-(2,6-dimethoxypyridin-3-yl)-3-(6-methyl-7-oxo-6,7-dihydro-1H-pyrrolo[2,3-c]pyridin-4-yl)benzamide]", "values": [
      {"measurement": "Ki", "setting": "[1]", "result": 2300, "unit": "nM"},
      {"measurement": "half-life at 0.5 μM", "setting": "[3]", "result": 36, "unit": "min"},
      {"measurement": "half-life at 0.5 μM", "setting": "[4]", "result": 34, "unit": "min"},
      {"measurement": "Ki", "setting": "[2]", "result": 486, "unit": "nM"}
    ]}
  ]
}
